Test results: paper PMC2194712, “Structure of Arabidopsis thaliana 5-methylthioribose kinase reveals a more occluded active site than its bacterial homolog” (BMC Structural Biology, 2007)

Legend:
[1] = target: T1, A. thaliana MTR kinase (Arabidopsis thaliana, UniProt Q9C6D2); experiment: X-ray crystallography, […] Å, co-crystallization; type: binding; conditions: crystal soaked at pH 6.5
T1 construct: gene MTK; full length, 420 residues; homodimer
T1 sequence (Q9C6D2 1-420): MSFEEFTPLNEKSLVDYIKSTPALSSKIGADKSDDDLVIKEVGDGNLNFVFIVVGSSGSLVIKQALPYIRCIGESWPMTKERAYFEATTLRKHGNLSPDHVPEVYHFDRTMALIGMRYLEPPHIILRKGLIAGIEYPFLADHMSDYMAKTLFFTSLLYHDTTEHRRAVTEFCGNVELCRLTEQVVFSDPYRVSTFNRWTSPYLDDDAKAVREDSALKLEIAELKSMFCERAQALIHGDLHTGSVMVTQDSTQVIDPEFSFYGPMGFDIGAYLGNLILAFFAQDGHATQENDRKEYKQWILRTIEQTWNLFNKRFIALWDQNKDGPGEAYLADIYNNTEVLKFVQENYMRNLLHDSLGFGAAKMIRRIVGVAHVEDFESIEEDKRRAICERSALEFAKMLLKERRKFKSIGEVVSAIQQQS

[2] = target: the molecule itself; experiment: SEC; size exclusion chromatography of A. thaliana MTR kinase, data not shown; conditions not given

## Nc1ncnc2c1ncn2[C@@H]1O[C@H](COP(=O)(O)OP(=O)(O)O)[C@@H](O)[C@H]1O [ADP]
[1]; nucleotide site, from ATPγS hydrolysed during co-crystallization, two Mg(II), MTR bound
  X-ray crystallography, 1.9 Å, co-crystallization: coordinates of the A. thaliana MTR kinase in complex with ADP and MTR

## CSC[C@H]1OC(O)[C@H](O)[C@@H]1O (stereo partly drawn) [MTR]
[1]; active site, co-crystallized with ATPγS and MTR, Mg(II) and ADP bound, alpha anomer
  X-ray crystallography, 1.9 Å, co-crystallization: coordinates of the A. thaliana MTR kinase in complex with ADP and MTR

B1: Arabidopsis thaliana 5-methylthioribose kinase (enzyme, UniProt Q9C6D2 1-420, looked up)
chain: MSFEEFTPLNEKSLVDYIKSTPALSSKIGADKSDDDLVIKEVGDGNLNFVFIVVGSSGSLVIKQALPYIRCIGESWPMTKERAYFEATTLRKHGNLSPDHVPEVYHFDRTMALIGMRYLEPPHIILRKGLIAGIEYPFLADHMSDYMAKTLFFTSLLYHDTTEHRRAVTEFCGNVELCRLTEQVVFSDPYRVSTFNRWTSPYLDDDAKAVREDSALKLEIAELKSMFCERAQALIHGDLHTGSVMVTQDSTQVIDPEFSFYGPMGFDIGAYLGNLILAFFAQDGHATQENDRKEYKQWILRTIEQTWNLFNKRFIALWDQNKDGPGEAYLADIYNNTEVLKFVQENYMRNLLHDSLGFGAAKMIRRIVGVAHVEDFESIEEDKRRAICERSALEFAKMLLKERRKFKSIGEVVSAIQQQS
notes: 5-methylthioribose (MTR) kinase of Arabidopsis thaliana, 420 residues; residues 1 and 420 are named as part of the crystallised protein (not modelled); also called A. thaliana MTR kinase; MTR kinase
[2]
  stoichiometry N: 2
